Experimental findings from US5608095A, “Alkyl-4-silyl-phenols and esters thereof as antiatherosclerotic agents” (Hoechst Marion Roussel, Inc., priority 1996, dated 1997) are described below.

The structures appear in SMILES notation. Read-outs that look alike come from different tables or passages of the source.

Data set [1] is described as follows: Clinical chemistries in serum of rats. The format is in vivo, male Sprague-Dawley rats. Conditions: for response vs control in vivo at 0.3 % / response vs control in vivo at 0.1 %: po, 96 h. An excerpt:
(§1) A typical experiment consisted of 4-6 groups of rats (N=5 per group) with 1 group being a control which received no MDL compound and the other groups being treated with 0.3% MDL compound. Some of the compounds were either repeated at 0.3% or evaluated again at the lower dose of 0.1%. Male Sprague-Dawley rats, 50-100 g, (Harlan Laboratories, Indianapolis, Ind.) were housed in groups of 5, fed ad libitum water and Purina Rodent chow (#5002) with or without MDL compound as a dietary admixture for 4 days. Dietary admixtures (0.3%) were made by mixing 1.2 grams of an MDL compound with 400 grams of Purina rodent chow (#5002). The MDL compound was mixed with approximately 50 grams of food using a mortar and pestle. This was added to the remainder of the food and mixed for 3 hours on a rotary mixer. In the morning of day 5, non-fasted rats were anesthetized with carbon dioxide, and blood was collected by cardiac puncture. Rats were sacrificed by cervical dislocation. Body weights and liver weights were recorded in grams. Food consumption was recorded as grams.cndot.day^-1.cndot.rat^-1. Deaths were recorded as mortality. Aliquots of fresh serum were used for clinical chemistries, thiobarbituric acid reactive substances (TBARS) and conjugated diene measurements. Aliquots of serum (~0.5mL) and whole livers were frozen at -20° C. for compound and metabolite concentration determination at a later time.
Blood was allowed to clot at room temperature for 30 minutes. Serum was obtained after centrifugation for 10 min at 4° C. at 3000 rpm in a Beckman J-6M/E centrifuge with a JS-4.2 rotor. Fresh serum was analyzed by a COBAS MIRA S autoanalyzer (Roche Diagnostics) using Roche diagnostic reagents for the following clinical chemistry measurements: alkaline phosphatase (ALP, kit #44553), alanine transaminase (ALT, kit #42375), aspartate aminotransferase (AST, kit #42381), total cholesterol (CHOL, kit #44334), triglyceride (TG, kit #44120), and glucose (GLU, kit #44558). ALP, ALT, and AST were calculated as units/L. Cholesterol, triglycerides, and glucose were calculated as mg/dL.

Data set [2] in a line: Food consumption, body and liver weight in cholesterol-fed rabbits. The format is in vivo, female New Zealand White rabbits. The note with it: for body wt., percent of control / lw/bw (liver weight/body weight), percent of control: rabbit. As for the experimental part: Five independent experiments were performed in the following manner. […] Female New Zealand White rabbits (Hazelton, ~2.0-2.3 kg) were fed 0.2% cholesterol enriched rabbit chow (Purina #5322) with or without 0.4% MDL compound (except, MDL 108,804 at 0.26% and MDL 103,491 repeated at 0.6%). The MDL compounds were solubilized in 100% ethanol. MDL 108,208 was not soluble in 100% ethanol, but it was soluble in diethyl ether:ethanol (3:2 by volume). The chow was sprayed with the MDL mixtures and allowed to dry overnight in a chemical fume hood. Control chow was sprayed with ethanol. Rabbits were fed 100 grams food per day for 7 days (0.6% MDL 103,491 were fed for 14 days); water was available ad libitum. On day 7, rabbits (fasted overnight) were bled (~2 mL) from marginal ear vein; 0.6% MDL 103,491 treated rabbits were tested on day 14. They were euthanized by carbon dioxide overdose. The total body and liver weights were recorded in grams. Food consumption was recorded as grams.cndot.day^-1 .cndot.rabbit^-1. Aliquots of fresh serum were used for clinical chemistries, lipoprotein cholesterol determination, thiobarbituric acid reactive substances (TBARS) and compound and metabolite concentrations in serum. Livers (~5 gram aliquots) were frozen at -20° C. for compound and metabolite concentration determination at a later time.

A further data set relates to oxidation of lipids. In words: Conjugated diene determination, rat serum. The note with it: pooled rat serum, diet 0.1%, 4 days, mean of 2 determinations. It is filed as in vivo, male Sprague-Dawley rats.
Description: as §1
Conjugated diene lag phase is another indicator of the oxidation of lipids. Lipids exposed to Cu^++ form conjugated dienes that absorb ultraviolet light in the range of 230 to 235 nm. The lag phase of diene formation gives an indication of the amount of oxidation of the lipids. A lag phase longer than control samples indicate inhibition of the oxidation. Conjugated diene lay phase was determined using a Varian DMS200 spectrophotometer (fitted with a constant temperature, 5 cuvette sample changer) at 30° C. Twenty (20) μL of pooled serum were added to cuvettes containing 3.0 mL phosphate buffered saline, pH 7.5, and mixed. The absorbances of all cuvettes were measured, and the instrument baseline was set to zero using the lowest absorbing sample. Next, 100 μL of 1 mmol CuSO4 were added and immediately mixed. The absorbance of each cuvette was recorded at 2 min intervals for a period of 840 min. The data were captured and transferred to a Microsoft EXCEL® spreadsheet where the curves were smoothed and differentials obtained. Lag times were determined mathematically as minutes. Serum samples were pooled (N=5); data presented are the mean values of 2 determinations. Serum samples from treated rats were compared to serum samples from control rats that received no MDL compound.

The mark [3] stands for this setting: Rattus norvegicus, read-out: CHOL (total cholesterol), percent of control.
Where [4] appears, read: Rattus norvegicus, read-out: TRIG (triglycerides), percent of control.
Setting [5] is: rat serum, diet 0.3%, 4 days, read-out: CHOL (total cholesterol), percent of control.
Where [6] appears, read: rat serum, diet 0.3%, 4 days, read-out: TRIG (triglycerides), percent of control.
Setting [7] is: rat serum, diet 0.1%, 4 days, read-out: CHOL (total cholesterol), percent of control.
[8] abbreviates: rat serum, diet 0.1%, 4 days, read-out: TRIG (triglycerides), percent of control.

`CC(C)(C)c1cc(OC[Si](C)(C)c2ccccc2)cc(C(C)(C)C)c1OC(=O)CCC(=O)O` [MDL 103,076, 2,6-Di-t-butyl-4-[(dimethylphenylsilyl)methyloxy]phenol succinic acid ester]: the response vs control in vivo at 0.3 % in data set [1] (setting [3]) amounted to 114%. The response vs control in vivo at 0.3 % in data set [1] (setting [4]) is 77%. Besides, in data set [1] (rat serum, diet 0.3%, 4 days), the “ALP (alkaline phosphatase), percent of control” value (“ALP … percent of control” below) came to 201%; the “ALT (alanine aminotransferase), percent of control” value (“ALT … percent of control” below) is on record as 132%; the “AST (aspartate aminotransferase), percent of control” value (“AST … percent of control” below) is on record as 99%; the “GLUC (glucose), percent of control” value worked out at 99%.
In the case of `CC(C)(C)c1cc(SC[Si](C)(C)c2ccccc2)cc(C(C)(C)C)c1OC(=O)CCC(=O)O` [MDL 103,141, 2,6-Di-t-butyl-4-[(dimethylphenylsilyl)methylthio]phenol sucinic acid ester], the response vs control in vivo at 0.3 % in data set [1] (setting [3]) was 119%. In addition, the response vs control in vivo at 0.3 % in data set [1] (setting [4]) turned out to be 47%. In addition, in data set [1] (rat serum, diet 0.3%, 4 days), the “ALP … percent of control” value is 147%; the “ALT … percent of control” value is on record as 126%; the “AST … percent of control” value is recorded as 120%; the “GLUC (glucose), percent of control” value stood at 107%.
Take `CC(=O)Oc1c(C(C)(C)C)cc(OC[Si](C)(C)c2ccccc2)cc1C(C)(C)C` [MDL 103,377, 2,6-Di-t-butyl-4-[(dimethylphenylsilyl)methyloxy]phenol acetic acid ester]: the response vs control in vivo at 0.3 % in data set [1] (setting [5]) was determined as 93%. In data set [1] (setting [6]), the response vs control in vivo at 0.3 % is 85%. In addition, in data set [1] (rat serum, diet 0.3%, 4 days), the “ALP … percent of control” value is 147%; the “ALT … percent of control” value amounted to 145%; the “AST … percent of control” value was found to be 149%; the “GLUC (glucose), percent of control” value is on record as 102%.
With `CC(C)(C)c1cc(OC[Si](C)(C)c2ccccc2)ccc1O` [MDL 103,491, 2-t-Butyl-4-[(dimethylphenylsilyl)methyloxy]phenol], in data set [2] (diet 0.4%, 7 days), the “food (grams eaten per day per rabbit), percent of control” value is recorded as 100%; the “body wt., percent of control” value was found to be 100%; the “lw/bw (liver weight/body weight), percent of control” value is 89%. Moreover, in data set [2] (diet 0.6%, 14 days), the “food (grams eaten per day per rabbit), percent of control” value was found to be 80%; the “body wt., percent of control” value was determined as 95%; the “lw/bw (liver weight/body weight), percent of control” value was 96%. For the same molecule, in data set [1] (setting [7]), the response vs control in vivo at 0.1 % came to 112%. Further, the response vs control in vivo at 0.1 % in data set [1] (setting [8]) was found to be 92%. Besides, the response vs control in vivo at 0.3 % in data set [1] (setting [5]) was 146%. In addition, in data set [1] (setting [6]), the response vs control in vivo at 0.3 % came to 131%. For the same molecule, in data set [1] (rat serum, diet 0.1%, 4 days), the “ALP … percent of control” value is reported as 116%; the “ALT … percent of control” value turned out to be 133%; the “AST … percent of control” value is recorded as 94%; the “GLUC (glucose), percent of control” value is reported as 101%. Further, in data set [1] (rat serum, diet 0.3%, 4 days), the “ALP … percent of control” value was 80%; the “ALT … percent of control” value came to 127%; the “AST … percent of control” value is given as 114%; the “GLUC (glucose), percent of control” value was 94%. Also, the “CONJ. DIENE (conjugated diene lag phase)” value in the data set with oxidation of lipids was 168 min.
Regarding `CN(C)c1ccc([Si](C)(C)COc2cc(C(C)(C)C)c(O)c(C(C)(C)C)c2)cc1` [MDL 104,556, 2,6-Di-t-butyl-4-[(4-N,N-dimethylaminophenyldimethylsilyl)methyloxy]phenol], in data set [2] (diet 0.4%, 7 days), the “food (grams eaten per day per rabbit), percent of control” value was 100%; the “body wt., percent of control” value was determined as 97%; the “lw/bw (liver weight/body weight), percent of control” value is listed as 96%. The response vs control in vivo at 0.1 % in data set [1] (setting [7]) is 96%. Besides, the response vs control in vivo at 0.1 % in data set [1] (setting [8]) stood at 74%. The response vs control in vivo at 0.3 % in data set [1] (setting [5]) was determined as 119%. The response vs control in vivo at 0.3 % in data set [1] (setting [6]) is 95%. Besides, in data set [1] (rat serum, diet 0.1%, 4 days), the “ALP … percent of control” value is recorded as 112%; the “ALT … percent of control” value came out at 125%; the “AST … percent of control” value turned out to be 107%; the “GLUC (glucose), percent of control” value stood at 102%. In addition, in data set [1] (rat serum, diet 0.3%, 4 days), the “ALP … percent of control” value is recorded as 112%; the “ALT … percent of control” value is 106%; the “AST … percent of control” value turned out to be 101%; the “GLUC (glucose), percent of control” value is on record as 113%. In the data set on oxidation of lipids, the “CONJ. DIENE (conjugated diene lag phase)” value turned out to be 200 min.
Regarding `CC(C)(C)c1cc(OC[Si](C)(c2ccccc2)c2ccccc2)cc(C(C)(C)C)c1O` [MDL 104,599, 2,6-Di-t-butyl-4-[(diphenylmethylsilyl)methloxy]phenol], in data set [2] (diet 0.4%, 7 days), the “food (grams eaten per day per rabbit), percent of control” value was found to be 98%; the “body wt., percent of control” value came to 99%; the “lw/bw (liver weight/body weight), percent of control” value came to 86%. Moreover, the response vs control in vivo at 0.3 % in data set [1] (setting [5]) turned out to be 94%. In addition, the response vs control in vivo at 0.3 % in data set [1] (setting [6]) worked out at 100%. In data set [1] (rat serum, diet 0.3%, 4 days), the “ALP … percent of control” value was determined as 110%; the “ALT … percent of control” value is given as 91%; the “AST … percent of control” value was 76%; the “GLUC (glucose), percent of control” value turned out to be 111%.
With `Cc1cc(OC[Si](C)(C)c2ccccc2)c(C)c(C)c1O` [MDL 105,314, 2,3,6-Trimethyl-4-[(dimethylphenylsdilyl)methloxy]phenol], the response vs control in vivo at 0.3 % in data set [1] (setting [3]) is 110%. For the same molecule, in data set [1] (setting [4]), the response vs control in vivo at 0.3 % was 78%. Besides, in data set [1] (rat serum, diet 0.3%, 4 days), the “ALP … percent of control” value is given as 154%; the “ALT … percent of control” value is listed as 113%; the “AST … percent of control” value amounted to 76%; the “GLUC (glucose), percent of control” value was 115%.
As for `CC(C)(C)c1cc(OC[Si](C)(C)c2ccc(C(F)(F)F)cc2)cc(C(C)(C)C)c1O` [MDL 105,975, 2,6-Di-t-butyl-4-[(dimethyl-4-trifluoromethylphenylsilyl)methyloxy]phenol], in data set [2] (diet 0.4%, 7 days), the “food (grams eaten per day per rabbit), percent of control” value amounted to 100%; the “body wt., percent of control” value amounted to 101%; the “lw/bw (liver weight/body weight), percent of control” value is listed as 108%. In addition, in data set [1] (setting [3]), the response vs control in vivo at 0.1 % worked out at 98% and the response vs control in vivo at 0.3 % worked out at 122%. For the same molecule, in data set [1] (setting [4]), the response vs control in vivo at 0.1 % was found to be 108% and the response vs control in vivo at 0.3 % was 107%. In addition, in data set [1] (rat serum, diet 0.1%, 4 days), the “ALP … percent of control” value amounted to 112%; the “ALT … percent of control” value came to 96%; the “AST … percent of control” value was found to be 89%; the “GLUC (glucose), percent of control” value worked out at 110%. For the same molecule, in data set [1] (rat serum, diet 0.3%, 4 days), the “ALP … percent of control” value was 105%; the “ALT … percent of control” value worked out at 106%; the “AST … percent of control” value was 122%; the “GLUC (glucose), percent of control” value worked out at 106%.
